The text below walks through data of patent publication US20210353769A1, “SURFACE MODIFIED EXTRACELLULAR VESICLES” (City University of Hong Kong, priority 2018, published 2021).

This assay concerns H358 cells. Nature of the assay: Uptake of Calcein AM-labelled RBCEVs by H358 cells (FACS). It is filed as cell-based, human. As to conditions: 5-20 μg/ml Filipin.

Experimental: To test the uptake of RBCEVs by the cells, we labelled RBCEVs with Calcein AM, a fluorescent dye, and sortagged the labelled RBCEVs with biotinylated EGFR-targeting peptide as described above. The labelled and sortagged RBCEVs were washed extensively with SEC and 2 rounds of centrifugation. We incubated H358 cells with a suboptimal dose of the labelled RBCEVs and analysed Calcein AM fluorescence in the cells after 2 hours of incubation (FIG. 8C). The fluorescent background was determined based on the supernatant of the last wash (flowthrough) of the labelled RBCEVs.
In a shorter uptake assay, H358, HCC827, MOLM13 and THP1 cells were incubated with Calcein AM-labelled RBCEVs for 1 to 2 hours at 37° C. To identify the route of EV uptake, we added 25-100 μM EIPA, 5-20 μg/ml Filipin, 0.25-1 μM Wortmannin.
Flow cytometry of latex beads or cells in FACS buffer was performed using a CytoFLEX-S cytometer (Beckman Coulter) and analyzed using Flowjo V10 (Flowjo, USA). The beads or cells were initially gated based on FSC-A and SSC-A to exclude the debris and dead cells (low FSC-A). The cells were further gated based on FSC-width vs. FSC-height, to exclude doublets and aggregates.

Consider `CCCCC[C@@H](O)[C@H]1C(=O)O[C@H](C)[C@@H](O)/C=C/C=C/C=C/C=C/C=C(\C)[C@@H](O)C[C@H](O)C[C@H](O)C[C@H](O)C[C@H](O)C[C@H](O)C[C@@H]1O` [Filipin], for which the “effect of endocytosis inhibitor on uptake of ET-ligated RBCEVs” value is reported as “reduce the uptake”.
